From patent US20260138961A1, “MODULATORS OF MITOCHONDRIAL DNA REPLICATION” (Pretzel Therapeutics, Inc., priority 2022, published 2026)

Each compound was assayed against T1, POLγA:R309C (Homo sapiens, UniProt P54098, R309C) (assay: DNA polymerization assay, POLγA:R309C mutant). Conditions: stimulation of polymerase activity, primed M13mp18 ssDNA, 37° C. 2 hours.
T1 sequence (P54098 1-1239 R309C): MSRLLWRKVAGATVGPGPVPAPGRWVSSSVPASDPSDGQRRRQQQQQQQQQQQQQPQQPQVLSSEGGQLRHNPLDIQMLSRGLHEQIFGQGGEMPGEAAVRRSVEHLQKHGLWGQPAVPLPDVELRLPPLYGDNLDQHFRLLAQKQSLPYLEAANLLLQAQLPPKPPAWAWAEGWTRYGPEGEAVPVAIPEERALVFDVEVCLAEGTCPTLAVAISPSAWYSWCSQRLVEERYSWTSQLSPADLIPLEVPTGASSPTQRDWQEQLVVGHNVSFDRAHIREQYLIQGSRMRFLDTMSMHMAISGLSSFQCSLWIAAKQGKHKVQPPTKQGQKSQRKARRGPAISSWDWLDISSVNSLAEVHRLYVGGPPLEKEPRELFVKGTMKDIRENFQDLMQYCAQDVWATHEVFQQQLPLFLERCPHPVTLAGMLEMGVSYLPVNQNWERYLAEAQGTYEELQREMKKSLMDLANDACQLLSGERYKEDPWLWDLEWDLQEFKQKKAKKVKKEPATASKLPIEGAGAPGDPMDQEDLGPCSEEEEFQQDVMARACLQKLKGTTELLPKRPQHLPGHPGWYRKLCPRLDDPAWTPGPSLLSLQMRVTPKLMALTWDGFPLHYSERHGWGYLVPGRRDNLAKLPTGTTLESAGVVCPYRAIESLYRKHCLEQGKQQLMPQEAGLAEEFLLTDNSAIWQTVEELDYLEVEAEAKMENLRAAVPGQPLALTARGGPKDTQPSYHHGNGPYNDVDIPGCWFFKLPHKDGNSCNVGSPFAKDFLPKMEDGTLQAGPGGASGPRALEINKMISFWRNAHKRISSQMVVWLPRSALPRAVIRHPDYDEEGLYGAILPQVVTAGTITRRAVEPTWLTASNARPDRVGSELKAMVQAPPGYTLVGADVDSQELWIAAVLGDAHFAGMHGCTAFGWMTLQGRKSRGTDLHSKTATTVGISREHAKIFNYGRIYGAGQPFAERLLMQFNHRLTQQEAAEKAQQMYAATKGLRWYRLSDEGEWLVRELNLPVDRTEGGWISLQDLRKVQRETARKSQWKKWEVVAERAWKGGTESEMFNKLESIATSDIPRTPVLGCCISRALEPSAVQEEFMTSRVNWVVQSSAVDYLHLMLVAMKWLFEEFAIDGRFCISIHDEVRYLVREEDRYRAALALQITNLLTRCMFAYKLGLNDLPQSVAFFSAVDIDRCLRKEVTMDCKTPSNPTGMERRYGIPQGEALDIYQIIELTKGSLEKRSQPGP
T1 sequence (Q9UHN1 1-485 partner): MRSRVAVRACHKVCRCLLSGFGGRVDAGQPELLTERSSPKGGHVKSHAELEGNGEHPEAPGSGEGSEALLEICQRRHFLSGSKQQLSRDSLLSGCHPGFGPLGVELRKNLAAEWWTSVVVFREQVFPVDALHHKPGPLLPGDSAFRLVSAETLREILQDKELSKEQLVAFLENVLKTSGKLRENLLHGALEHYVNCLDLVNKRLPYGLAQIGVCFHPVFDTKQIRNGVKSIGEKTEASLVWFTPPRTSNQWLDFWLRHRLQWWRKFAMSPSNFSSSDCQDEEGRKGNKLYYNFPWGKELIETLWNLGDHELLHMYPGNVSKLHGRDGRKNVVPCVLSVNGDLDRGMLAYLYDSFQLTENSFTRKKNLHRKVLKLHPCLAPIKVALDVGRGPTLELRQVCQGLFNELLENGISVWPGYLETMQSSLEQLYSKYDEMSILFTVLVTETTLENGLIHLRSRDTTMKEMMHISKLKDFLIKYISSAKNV
Format: biochemical
Protocol: DNA Polymerization Assay to Monitor Effects on Human Wildtype POLγ and Four Disease-Causing Mutant Variants of Human POLγ.
The ability of small molecules to stimulate the polymerase activity of POLγ was analyzed in a quantitative fluorescence SYBR Green I assay with fluorescence intensity (FI) readout.
In the presence of dNTPs, wild type human POLγ and mutant derivatives thereof were incubated with single-stranded, circular M13mp18 ssDNA hybridized to a short DNA oligonucleotide that functions as a primer for initiation of DNA synthesis. POLγ and mutant derivatives thereof will extend the primer and use the M13mp18 molecule as a template to synthesize long stretches of double-stranded DNA. SYBR Green I, which is a double-stranded DNA-binding dye, was used to quantify formation of double-stranded DNA in the reaction. When bound to double-stranded DNA, SYBR Green I fluorescence increases by up to 100-fold.
The assay was performed in the 384-well plate format. Upon addition of compounds, changes in double-stranded DNA synthesis activity can be monitored by following effects on fluorescent intensity.
The reactions also contained the accessory POLγB subunit, and the human mitochondrial single-stranded DNA binding protein (mtSSB).
The DNA template mixture used in the assay contained 0.5 nM primed M13 mp18 ssDNA, 400 nM mtSSB, 0.1 mM Tris-HCl (pH 8.0), 0.1 mM dNTP, 10 mM MgCl2, 0.1 mg/mL BSA, 1 mM TCEP solution, and 0.02% Triton X-100. The DNA template mixture for the wild type protein contained either 100 μM dNTP, 1 μM dNTP, or 0.1 μM dNTP, designated in Table 2 as 100 μM, 1 μM, and 0.1 μM, respectfully.
Microplates with compounds (0.1 μL in each well) to be tested in the assay were prepared from 10 mM compound stocks in 100% DMSO, and equal amounts of DMSO without any compound were added to positive and negative control wells.
The protein mixture was dispensed (5 μL into each well) into compound plates and incubated at 37° C. for 15 minutes. After incubation, 5 μL of the DNA template mixture was dispensed into each well. The plates were then incubated at 37° C. for 2 hours.
During incubation, a combined stop buffer and detection reagent solution was prepared. The buffer contained 25 mM EDTA (pH 8.0), 0.02% Triton X-100, and SYBR Green I [Invitrogen] diluted 10,000× (for fluorescent readout). EDTA will stop the enzymatic reaction by chelating magnesium ions.

Row | SMILES | AC50 [µM]
1 | Cc1nc2ccc(NS(=O)(=O)c3cc(C)c(Cl)cc3C)cc2s1 [Example 73, 4-chloro-2,5-dimethyl-N-(2-methylbenzo[d]thiazol-6-yl)benzenesulfonamide] | 1
2 | Cc1csc(-c2ccccc2NS(=O)(=O)c2cc(C)c(Cl)cc2C)n1 [Example 80, 4-chloro-2,5-dimethyl-N-(2-(4-methylthiazol-2-yl)phenyl)benzenesulfonamide] | > 100
3 | Cc1cc(S(=O)(=O)Nc2ccc3ccn(C)c3c2)c(C)cc1Cl [Example 72, 4-chloro-2,5-dimethyl-N-(1-methyl-1H-indol-6-yl)benzenesulfonamide] | 30
4 | Cc1cc(S(=O)(=O)Nc2cccc(-c3ncc(C4CC4)s3)c2)c(C)cc1Cl [Example 76, 4-chloro-N-(3-(5-cyclopropylthiazol-2-yl)phenyl)-2,5-dimethylbenzenesulfonamide] | 6

Further lines, results first:

Row | AC50 [µM] | SMILES
5 | 0.6 | Cc1cc(S(=O)(=O)Nc2csc(-c3ccccc3)n2)c(C)cc1Cl [Example 81, 4-chloro-2,5-dimethyl-N-(2-phenylthiazol-4-yl)benzenesulfonamide]
6 | 6 | Cc1cc(S(=O)(=O)Nc2cccc(-c3ncc(CN(C)C)s3)c2)c(C)cc1Cl [Example 87, 4-chloro-N-(3-(5-((dimethylamino)methyl)thiazol-2-yl)phenyl)-2,5-dimethylbenzenesulfonamide]
7 | 4 | Cc1cc(S(=O)(=O)Nc2cccc(-c3ncc(CO)s3)c2)c(C)cc1Cl [Example 89, 4-chloro-N-(3-(5-(hydroxymethyl)thiazol-2-yl)phenyl)-2,5-dimethylbenzenesulfonamide]
